ChEMBL document CHEMBL5661983, “The selective anaplastic lymphoma receptor tyrosine kinase inhibitor ASP3026 induces tumor regression and prolongs survival in non-small cell lung cancer model mice” (Mol Cancer Ther, 2014)
Activity calls are given as the source filed them. The rule behind the calls is not given here.

Tests used:
NCI-H2228 [1] = experiment: Antitumor activity against human NCI-H2228 cells xenografted in NOD.CB17-Prkdcscid/J mouse assessed as tumor growth inhibition at 10 mg/kg, po administered once daily for 2 weeks relative to control; type: functional; conditions: NCI-H2228, 336 h, read-out: TGI
[2] = Ratio of Cmax in human NCI-H2228 cell xenografted NOD.CB17-Prkdcscid/J mouse tumor to plasma at 10 mg/kg/day for 5 days by HPLC-MS analysis; type: ADME, organism-based; conditions: tumor and plasma, route po, time 5 day
[3] = Selectivity ratio of IC50 for EML4-ALK L1196M mutant (unknown origin) transformed in mouse BaF3 cells to IC50 for EML4-ALK (unknown origin) transformed in mouse BaF3 cells; parameters: species or system Homo sapiens; conditions: condition non-small cell lung carcinoma
[4] = biological target: Tyrosine-protein kinase JAK2 (Homo sapiens, UniProt O60674)
[5] = biological target: Epidermal growth factor receptor (Homo sapiens, UniProt P00533, L858R)
[6] = Cmax in human NCI-H2228 cell xenografted NOD.CB17-Prkdcscid/J mouse plasma at 3 mg/kg/day for 5 days by HPLC-MS analysis; type: ADME, organism-based; conditions: route po, time 5 day
[7] = biological target: T1, ALK tyrosine kinase receptor (Homo sapiens, UniProt Q9UM73); experiment: Inhibition of ALK in human NCI-H2228 cells assessed as reduction in AKT phosphorylation by measuring phosphorylated AKT level at 10 nmol/L measured after 4 hrs by Western blot analysis relative to control; type: cell-based; parameters: scale not given: the % may be the effect or the level left
[8] = biological target: ALK tyrosine kinase receptor (Homo sapiens, UniProt Q9UM73, F1174L)
NCI-H2228 [9] = experiment: Antiproliferative activity against human NCI-H2228 cell spheroids assessed as reduction in cell growth measured after 5 days by celltiter-glo luminescent cell viability assay; type: functional, cell-based; conditions: NCI-H2228, 120 h
[10] = biological target: ALK tyrosine kinase receptor (Homo sapiens, UniProt Q9UM73, R1275Q)
[11] = Selectivity ratio of IC50 for inhibition of EML4-ALK L1196M mutant (unknown origin) expressed in mouse 3T3 cells assessed as growth inhibition to IC50 for Inhibition of EML4-ALK (unknown origin) expressed in mouse 3T3 cells assessed as growth inhibition; parameters: species or system Homo sapiens; conditions: condition non-small cell lung carcinoma
[12] = Tmax in human NCI-H2228 cell xenografted NOD.CB17-Prkdcscid/J mouse tumor at 10 mg/kg/day for 5 days by HPLC-MS analysis; type: ADME, organism-based, Neoplasm; conditions: route po, time 5 day
NCI-H2228 [13] = experiment: Antitumor activity against human NCI-H2228 cells xenografted in NOD.CB17-Prkdcscid/J mouse assessed as tumor growth inhibition at 30 mg/kg, po administered once daily for 2 weeks relative to control; type: functional; conditions: NCI-H2228, 336 h, read-out: TGI
[14] = Toxicity in human NCI-H2228 cell xenografted NOD.CB17-Prkdcscid/J mouse assessed as change in body weight at 10 mg/kg, po administered once daily for 5 days in presence of pemetrexed; type: organism-based; conditions: in vivo, 120 h, time 5 day
[15] = biological target: T1, ALK tyrosine kinase receptor; experiment: Inhibition of ALK phosphorylation in human NCI-H2228 cells assessed as phosphorylated ALK level at 100 nmol/L measured after 4 hrs by Western blot analysis relative to control; type: cell-based; parameters: scale not given: the % may be the effect or the level left
[16] = biological target: T1, ALK tyrosine kinase receptor; experiment: Inhibition of ALK in human NCI-H2228 cells assessed as reduction in STAT3 phosphorylation by measuring phosphorylated STAT3 level at 100 nmol/L measured after 4 hrs by Western blot analysis relative to control; type: cell-based; parameters: scale not given: the % may be the effect or the level left
in vivo = conditions: NOD.CB17-Prkdcscid/J, mouse, tumour, po, 1 mg/kg
[17] = Cmax in human NCI-H2228 cell xenografted NOD.CB17-Prkdcscid/J mouse plasma at 1 mg/kg/day for 5 days by HPLC-MS analysis; type: ADME, organism-based; conditions: route po, time 5 day
Mus musculus = experiment: Antitumor activity against hEML4-ALK transgenic C57BL/6J mouse assessed as reduction in tumor mass at 100 mg/kg, po administered daily for 10 days and measured on day 11 by computed tomography scan analysis; type: functional, organism-based; conditions: time 11.0 day
NCI-H2228 [18] = experiment: Antitumor activity against human NCI-H2228 cells xenografted in NOD.CB17-Prkdcscid/J mouse assessed as tumor growth inhibition at 1 mg/kg, po administered once daily for 2 weeks relative to control; type: functional; conditions: NCI-H2228, 336 h, read-out: TGI

T1 sequence (Q9UM73 19-1620 limits assumed): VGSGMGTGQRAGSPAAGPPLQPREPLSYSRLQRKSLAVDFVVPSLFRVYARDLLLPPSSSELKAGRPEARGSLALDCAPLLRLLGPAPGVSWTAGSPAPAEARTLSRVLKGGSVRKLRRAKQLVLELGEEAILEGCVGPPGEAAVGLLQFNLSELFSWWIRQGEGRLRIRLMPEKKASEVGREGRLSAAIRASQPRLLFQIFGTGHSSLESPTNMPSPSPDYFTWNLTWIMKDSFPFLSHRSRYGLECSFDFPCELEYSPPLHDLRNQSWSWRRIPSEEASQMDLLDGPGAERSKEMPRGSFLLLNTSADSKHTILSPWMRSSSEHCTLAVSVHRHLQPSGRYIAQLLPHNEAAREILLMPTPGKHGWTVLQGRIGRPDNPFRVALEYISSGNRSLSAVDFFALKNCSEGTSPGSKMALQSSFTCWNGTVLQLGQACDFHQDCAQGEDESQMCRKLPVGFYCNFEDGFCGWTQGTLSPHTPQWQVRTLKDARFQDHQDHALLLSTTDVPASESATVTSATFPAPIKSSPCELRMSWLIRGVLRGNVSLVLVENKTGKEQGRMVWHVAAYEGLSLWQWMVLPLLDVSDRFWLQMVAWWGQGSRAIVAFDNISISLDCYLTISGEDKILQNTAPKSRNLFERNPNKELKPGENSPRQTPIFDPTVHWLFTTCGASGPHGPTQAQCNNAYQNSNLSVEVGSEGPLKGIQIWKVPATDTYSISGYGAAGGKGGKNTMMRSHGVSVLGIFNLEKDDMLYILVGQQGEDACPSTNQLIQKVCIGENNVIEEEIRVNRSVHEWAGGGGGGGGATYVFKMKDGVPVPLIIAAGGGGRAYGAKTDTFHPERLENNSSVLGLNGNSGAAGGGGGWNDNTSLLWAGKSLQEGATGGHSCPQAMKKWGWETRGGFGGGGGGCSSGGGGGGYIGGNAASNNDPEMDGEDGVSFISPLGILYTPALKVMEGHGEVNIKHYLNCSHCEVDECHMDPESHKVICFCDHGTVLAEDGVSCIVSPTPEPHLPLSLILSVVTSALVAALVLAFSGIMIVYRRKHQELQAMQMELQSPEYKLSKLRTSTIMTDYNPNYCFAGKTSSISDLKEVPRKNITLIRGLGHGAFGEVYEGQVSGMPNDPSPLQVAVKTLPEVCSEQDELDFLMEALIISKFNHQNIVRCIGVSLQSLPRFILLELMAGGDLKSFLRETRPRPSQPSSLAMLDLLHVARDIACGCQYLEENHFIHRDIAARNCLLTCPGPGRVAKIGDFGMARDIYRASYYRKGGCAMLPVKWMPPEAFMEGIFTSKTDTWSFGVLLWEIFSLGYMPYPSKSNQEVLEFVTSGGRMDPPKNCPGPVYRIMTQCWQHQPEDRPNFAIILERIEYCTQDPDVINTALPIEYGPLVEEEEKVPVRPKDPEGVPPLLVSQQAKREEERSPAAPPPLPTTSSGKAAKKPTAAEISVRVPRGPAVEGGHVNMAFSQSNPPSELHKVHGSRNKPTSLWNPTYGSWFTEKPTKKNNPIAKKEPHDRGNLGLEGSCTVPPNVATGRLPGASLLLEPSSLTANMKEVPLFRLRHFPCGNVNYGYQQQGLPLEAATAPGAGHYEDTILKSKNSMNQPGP
ALK tyrosine kinase receptor (Homo sapiens, UniProt Q9UM73, R1275Q), sequence (Q9UM73 19-1620 R1275Q limits assumed): as the sequence (Q9UM73 19-1620 limits assumed) above, with R1257Q counted along it
ALK tyrosine kinase receptor (Homo sapiens, UniProt Q9UM73, F1174L), sequence (Q9UM73 19-1620 F1174L limits assumed): as the sequence (Q9UM73 19-1620 limits assumed) above, with F1156L counted along it
Tyrosine-protein kinase JAK2, sequence (O60674 whole entry): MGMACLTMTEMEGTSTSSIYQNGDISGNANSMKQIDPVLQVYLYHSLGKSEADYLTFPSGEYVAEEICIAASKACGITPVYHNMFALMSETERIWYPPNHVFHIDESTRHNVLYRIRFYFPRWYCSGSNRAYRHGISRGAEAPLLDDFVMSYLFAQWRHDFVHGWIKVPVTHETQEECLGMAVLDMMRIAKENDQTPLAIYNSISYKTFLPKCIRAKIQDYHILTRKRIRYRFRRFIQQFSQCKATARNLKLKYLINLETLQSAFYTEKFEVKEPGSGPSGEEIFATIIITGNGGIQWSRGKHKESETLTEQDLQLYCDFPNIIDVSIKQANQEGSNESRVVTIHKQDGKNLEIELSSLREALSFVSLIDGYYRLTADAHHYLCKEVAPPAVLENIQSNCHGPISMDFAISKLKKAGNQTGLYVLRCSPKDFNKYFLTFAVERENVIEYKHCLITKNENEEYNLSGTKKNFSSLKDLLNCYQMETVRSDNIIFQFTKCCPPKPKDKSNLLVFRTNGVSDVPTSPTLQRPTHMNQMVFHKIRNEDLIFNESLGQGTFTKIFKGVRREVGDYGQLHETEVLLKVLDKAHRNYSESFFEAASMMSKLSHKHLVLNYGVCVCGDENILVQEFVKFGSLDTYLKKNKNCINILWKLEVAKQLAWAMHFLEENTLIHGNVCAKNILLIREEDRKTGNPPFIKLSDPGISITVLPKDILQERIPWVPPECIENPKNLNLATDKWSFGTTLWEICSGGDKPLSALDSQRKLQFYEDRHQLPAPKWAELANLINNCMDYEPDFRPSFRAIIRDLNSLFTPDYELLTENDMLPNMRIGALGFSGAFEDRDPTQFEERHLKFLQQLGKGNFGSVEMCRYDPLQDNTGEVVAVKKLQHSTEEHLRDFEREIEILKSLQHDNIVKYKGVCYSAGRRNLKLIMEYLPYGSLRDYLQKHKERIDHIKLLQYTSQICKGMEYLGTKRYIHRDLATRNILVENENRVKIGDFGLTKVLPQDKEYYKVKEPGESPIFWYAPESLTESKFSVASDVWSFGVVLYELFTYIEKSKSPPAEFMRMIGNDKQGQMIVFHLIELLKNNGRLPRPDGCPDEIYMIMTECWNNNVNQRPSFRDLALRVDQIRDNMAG
Epidermal growth factor receptor, sequence (P00533 25-1210 L858R limits assumed): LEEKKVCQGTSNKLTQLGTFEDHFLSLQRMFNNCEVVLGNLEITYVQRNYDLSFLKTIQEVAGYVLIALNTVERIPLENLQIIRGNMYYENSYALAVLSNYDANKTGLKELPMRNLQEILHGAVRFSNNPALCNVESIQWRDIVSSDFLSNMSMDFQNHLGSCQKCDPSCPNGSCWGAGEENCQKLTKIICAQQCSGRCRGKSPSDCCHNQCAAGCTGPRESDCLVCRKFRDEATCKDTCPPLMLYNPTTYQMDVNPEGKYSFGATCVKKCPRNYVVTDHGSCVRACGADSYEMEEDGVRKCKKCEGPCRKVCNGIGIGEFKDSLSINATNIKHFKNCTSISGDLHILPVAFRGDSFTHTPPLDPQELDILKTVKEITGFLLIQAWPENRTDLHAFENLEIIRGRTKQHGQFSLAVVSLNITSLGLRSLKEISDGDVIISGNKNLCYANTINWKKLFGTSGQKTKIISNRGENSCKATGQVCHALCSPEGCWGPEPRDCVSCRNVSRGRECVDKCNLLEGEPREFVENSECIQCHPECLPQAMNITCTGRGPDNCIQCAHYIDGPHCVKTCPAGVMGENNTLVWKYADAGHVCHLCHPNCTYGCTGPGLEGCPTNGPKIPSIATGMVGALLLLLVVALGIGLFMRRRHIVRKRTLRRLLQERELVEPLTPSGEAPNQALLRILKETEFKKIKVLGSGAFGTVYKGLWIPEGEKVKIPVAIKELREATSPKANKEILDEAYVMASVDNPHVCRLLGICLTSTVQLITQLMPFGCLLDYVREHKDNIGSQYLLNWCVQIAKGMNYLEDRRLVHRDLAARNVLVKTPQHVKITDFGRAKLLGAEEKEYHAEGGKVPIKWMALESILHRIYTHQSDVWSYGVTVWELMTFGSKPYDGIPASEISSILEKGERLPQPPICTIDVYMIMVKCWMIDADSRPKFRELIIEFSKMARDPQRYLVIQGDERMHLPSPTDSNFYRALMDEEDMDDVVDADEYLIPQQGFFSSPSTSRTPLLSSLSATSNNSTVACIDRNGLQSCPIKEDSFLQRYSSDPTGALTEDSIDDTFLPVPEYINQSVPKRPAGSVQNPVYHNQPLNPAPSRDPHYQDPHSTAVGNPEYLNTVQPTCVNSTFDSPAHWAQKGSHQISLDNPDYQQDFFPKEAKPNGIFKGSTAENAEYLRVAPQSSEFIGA

In the case of `COc1cc(N2CCC(N3CCN(C)CC3)CC2)ccc1Nc1ncnc(Nc2ccccc2S(=O)(=O)C(C)C)n1` [ASP-3026], the inhibition in vivo at 10 mg/kg (NCI-H2228 [1]) is reported as > 100%, the Kp at 120 h [2] is reported as 18 and the “Ratio IC50” value [3] is reported as 3.2. For the same compound, the IC50 [4] was > 1000 nM, the IC50 [5] was 86 nM and the Cmax [6] was 140 ng/mL. The Activity [7] was 120%, the IC50 [8] was 10 nM and the IC50 (NCI-H2228 [9]) was 64.8 nM. The IC50 [10] was 5.4 nM, the “Ratio IC50” value [11] was 3.9 and the Tmax [12] was 4 h. The inhibition in vivo at 30 mg/kg (NCI-H2228 [13]) was > 100%, the Activity [14] was “Non-Toxic” and the Activity [15] was 37%. For the same compound, the Activity [16] was 52%, the Kp at 120 h (in vivo) was 22 and the Cmax [17] was 44.3 ng/mL. The Activity (Mus musculus) was “Active” and the inhibition in vivo at 1 mg/kg (NCI-H2228 [18]) was 69%.
